We go through 19 compounds from patent US9108944B2, “Androgen receptor modulators and uses thereof” (ARAGON PHARMACEUTICALS, INC., priority 2010, dated 2015).

The target of assay [1] is T1, AR-VP16 (Homo sapiens, UniProt P10275).
T1 sequence (P10275 560-920 limits assumed): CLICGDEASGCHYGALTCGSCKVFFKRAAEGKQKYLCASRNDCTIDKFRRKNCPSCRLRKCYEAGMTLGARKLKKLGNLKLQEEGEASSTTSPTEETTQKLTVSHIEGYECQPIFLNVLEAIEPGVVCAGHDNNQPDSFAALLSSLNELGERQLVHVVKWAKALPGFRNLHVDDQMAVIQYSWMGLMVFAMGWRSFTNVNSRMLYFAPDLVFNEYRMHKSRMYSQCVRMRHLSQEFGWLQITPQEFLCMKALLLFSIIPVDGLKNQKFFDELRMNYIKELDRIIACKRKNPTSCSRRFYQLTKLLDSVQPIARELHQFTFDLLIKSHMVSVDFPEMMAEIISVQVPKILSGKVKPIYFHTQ
Briefly: AR-VP16 DNA Binding Assay, agonist mode (HepG2 cells). The class given is cell-based. As to conditions: Emax >20x DMSO control = agonist.

The target in assay [2] is T1, AR-VP16. Kind of assay: AR-VP16 DNA Binding Assay, antagonist mode (HepG2 cells, 0.1 nM R1881). It is filed as cell-based. In short, it runs like this:
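HepG2 cells transiently transfected with AR-VP16 (Lipofectin), incubated overnight, then treated with compound in RPMI with charcoal-stripped serum. Antagonist mode adds R1881 at 0.1 nM final. Cells lysed after 48 h incubation for read-out.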

On to `CN1CCN(CCNC(=O)c2cc(N3C(=S)N(c4cnc(C#N)c(C(F)(F)F)c4)C(=O)C34CCC4)ccc2F)CC1` [Compound 254, 5-(7-(6-Cyano-5-(trifluoromethyl)pyridin-3-yl)-8-oxo-6-thioxo-5,7-diazaspiro[3.4]octan-5-yl)-2-fluoro-N-(2-(4-methylpiperazin-1-yl)ethyl)benzamide], for which, on AR-VP16 [1], the “ARVP16 DNA Binding Assay (Agonist mode): Agonist?” value (shortened to “ARVP16 DNA Binding Assay”) is reported as “No (Agonist defined as a compound whose Emax in the ARVP16 DNA Binding Assay (Agonist mode) is >20x DMSO control)”. Further, the IC50 at AR-VP16 [2] was above 1000 nM.

With `Cc1ccc(N2C(=S)N(c3ccc4nccn4c3)C(=O)C23CCC3)cc1` [Compound 62, 7-(Imidazo[1,2-a]pyridin-6-yl)-6-thioxo-5-(p-tolyl)-5,7-diazaspiro[3.4]octan-8-one], the “ARVP16 DNA Binding Assay” value at AR-VP16 [1] is recorded as “No (Agonist defined as a compound whose Emax in the ARVP16 DNA Binding Assay (Agonist mode) is >20x DMSO control)”. This compound displayed an IC50 at AR-VP16 [2] above 1000 nM.

Regarding `Cc1ccc(CCN2C(=S)N(c3cnc(C#N)c(C(F)(F)F)c3)C(=O)C23CCC3)cc1` [Compound 85, 5-(5-(4-Methylphenethyl)-8-oxo-6-thioxo-5,7-diazaspiro[3.4]octan-7-yl)-3-(trifluoromethyl)picolinonitrile], on AR-VP16 [1], the “ARVP16 DNA Binding Assay” value is given as “Yes (Agonist defined as a compound whose Emax in the ARVP16 DNA Binding Assay (Agonist mode) is >20x DMSO control)”. This compound also showed an IC50 at AR-VP16 [2] below 1000 nM.

On to `N#Cc1cccc(N2C(=S)N(c3cnc(C#N)c(C(F)(F)F)c3)C(=O)C23CCC3)c1` [Compound 11, 5-(5-(3-Cyanophenyl)-8-oxo-6-thioxo-5,7-diazaspiro[3.4]octan-7-yl)-3-(trifluoromethyl)picolinonitrile], for which the “ARVP16 DNA Binding Assay” value on AR-VP16 [1] is “No (Agonist defined as a compound whose Emax in the ARVP16 DNA Binding Assay (Agonist mode) is >20x DMSO control)”. This compound returned an IC50 on AR-VP16 [2] below 1000 nM.

For `COc1ccc(N2C(=S)N(c3cnc(C#N)c(C(F)(F)F)c3)C(=O)C23CCC3)cc1F` [Compound 203, 5-(5-(3-Fluoro-4-methoxyphenyl)-8-oxo-6-thioxo-5,7-diazaspiro[3.4]octan-7-yl)-3-(trifluoromethyl)picolinonitrile], the “ARVP16 DNA Binding Assay” value at AR-VP16 [1] is “No (Agonist defined as a compound whose Emax in the ARVP16 DNA Binding Assay (Agonist mode) is >20x DMSO control)”. This compound gave a half-maximal inhibitory concentration (IC50) on AR-VP16 [2] below 1000 nM.

As to `Cn1ncc(Br)c1CCNC(=O)c1ccc(N2C(=S)N(c3cnc(C#N)c(C(F)(F)F)c3)C(=O)C23CCC3)cc1F` [Compound 256, N-(2-(4-Bromo-1-methyl-1H-pyrazol-5-yl)ethyl)-4-(7-(6-cyano-5-(trifluoromethyl)pyridin-3-yl)-8-oxo-6-thioxo-5,7-diazaspiro[3.4]octan-5-yl)-2-fluorobenzamide], the “ARVP16 DNA Binding Assay” value on AR-VP16 [1] is on record as “No (Agonist defined as a compound whose Emax in the ARVP16 DNA Binding Assay (Agonist mode) is >20x DMSO control)”. The IC50 on AR-VP16 [2] is below 1000 nM.

Regarding `N#Cc1ncc(N2C(=O)C3(CCC3)N(c3cccc(OC(F)(F)F)c3)C2=S)cc1C(F)(F)F` [Compound 45, 5-(8-Oxo-6-thioxo-5-(3-(trifluoromethoxy)phenyl)-5,7-diazaspiro[3.4]octan-7-yl)-3-(trifluoromethyl)picolinonitrile], the “ARVP16 DNA Binding Assay” value on AR-VP16 [1] is recorded as “No (Agonist defined as a compound whose Emax in the ARVP16 DNA Binding Assay (Agonist mode) is >20x DMSO control)”. On AR-VP16 [2], this compound displayed an IC50 below 1000 nM.

For `N#Cc1ncc(N2C(=O)C3(CCC3)N(c3ccc(F)c(OCCc4ccccn4)c3)C2=S)cc1C(F)(F)F` [Compound 158, 5-(5-(4-Fluoro-3-(2-(pyridin-2-yl)ethoxy)phenyl)-8-oxo-6-thioxo-5,7-diazaspiro[3.4]octan-7-yl)-3-(trifluoromethyl)picolinonitrile], the “ARVP16 DNA Binding Assay” value at AR-VP16 [1] is recorded as “No (Agonist defined as a compound whose Emax in the ARVP16 DNA Binding Assay (Agonist mode) is >20x DMSO control)”. At AR-VP16 [2], this compound had an IC50 above 1000 nM.

For the compound `Cc1cc(N2C(=O)C3(CCC3)N(c3ccc(-c4cccnc4C)cc3)C2=S)cnc1C#N` [Compound 99, 3-Methyl-5-(5-(4-(2-methylpyridin-3-yl)phenyl)-8-oxo-6-thioxo-5,7-diazaspiro[3.4]octan-7-yl)picolinonitrile], the “ARVP16 DNA Binding Assay” value on AR-VP16 [1] is “Yes (Agonist defined as a compound whose Emax in the ARVP16 DNA Binding Assay (Agonist mode) is >20x DMSO control)”. Besides, at AR-VP16 [2], the IC50 is below 1000 nM.

On to `Cn1nccc1CCOc1ccc(N2C(=S)N(c3cnc(C#N)c(C(F)(F)F)c3)C(=O)C23CCC3)cc1F` [Compound 126, 5-(5-(3-Fluoro-4-(2-(1-methyl-1H-pyrazol-5-yl)ethoxy)phenyl)-8-oxo-6-thioxo-5,7-diazaspiro[3.4]octan-7-yl)-3-(trifluoromethyl)picolinonitrile], for which the “ARVP16 DNA Binding Assay” value on AR-VP16 [1] is “Yes (Agonist defined as a compound whose Emax in the ARVP16 DNA Binding Assay (Agonist mode) is >20x DMSO control)”. The same compound gave an IC50 on AR-VP16 [2] below 1000 nM.

Regarding `N#Cc1ncc(N2C(=O)C3(CCC3)N(c3ccc(OCCN4CCS(=O)(=O)CC4)c(F)c3)C2=S)cc1C(F)(F)F` [Compound 186, 5-(5-(4-(2-(1,1-Dioxidothiomorpholino)ethoxy)-3-fluorophenyl)-8-oxo-6-thioxo-5,7-diazaspiro[3.4]octan-7-yl)-3-(trifluoromethyl)picolinonitrile], the “ARVP16 DNA Binding Assay” value on AR-VP16 [1] was “Yes (Agonist defined as a compound whose Emax in the ARVP16 DNA Binding Assay (Agonist mode) is >20x DMSO control)”. The compound also displayed an IC50 on AR-VP16 [2] below 1000 nM.

Turning to `CN1CCN(CCNC(=O)c2ccc(N3C(=S)N(c4cnc(C#N)c(C(F)(F)F)c4)C(=O)C34CCC4)cc2F)CC1` [Compound 243, 4-(7-(6-Cyano-5-(trifluoromethyl)pyridin-3-yl)-8-oxo-6-thioxo-5,7-diazaspiro[3.4]octan-5-yl)-2-fluoro-N-(2-(4-methylpiperazin-1-yl)ethyl)benzamide], the “ARVP16 DNA Binding Assay” value at AR-VP16 [1] is on record as “No (Agonist defined as a compound whose Emax in the ARVP16 DNA Binding Assay (Agonist mode) is >20x DMSO control)”. This compound also had an IC50 on AR-VP16 [2] above 1000 nM.

Regarding `CCOC(=O)CN1CCC(Oc2ccc(N3C(=S)N(c4cnc(C#N)c(C(F)(F)F)c4)C(=O)C34CCC4)cc2)CC1` [Compound 221, Ethyl 2-(4-(4-(7-(6-cyano-5-(trifluoromethyl)pyridin-3-yl)-8-oxo-6-thioxo-5,7-diazaspiro[3.4]octan-5-yl)phenoxy)piperidin-1-yl)acetate], at AR-VP16 [1], the “ARVP16 DNA Binding Assay” value was “No (Agonist defined as a compound whose Emax in the ARVP16 DNA Binding Assay (Agonist mode) is >20x DMSO control)”. This compound also came in with an IC50 at AR-VP16 [2] above 1000 nM.

As for `N#Cc1ncc(N2C(=O)C3(CCC3)N(c3ccc(OC(F)(F)F)cc3)C2=S)cc1C(F)(F)F` [Compound 44, 5-(8-Oxo-6-thioxo-5-(4-(trifluoromethoxy)phenyl)-5,7-diazaspiro[3.4]octan-7-yl)-3-(trifluoromethyl)picolinonitrile], the “ARVP16 DNA Binding Assay” value at AR-VP16 [1] was “No (Agonist defined as a compound whose Emax in the ARVP16 DNA Binding Assay (Agonist mode) is >20x DMSO control)”. At AR-VP16 [2], this compound showed an IC50 below 1000 nM.

In the case of `N#Cc1ncc(N2C(=O)C3(CCC3)N(c3ccc(F)c(C(=O)NCCc4cccnc4)c3)C2=S)cc1C(F)(F)F` [Compound 240, 5-(7-(6-Cyano-5-(trifluoromethyl)pyridin-3-yl)-8-oxo-6-thioxo-5,7-diazaspiro[3.4]octan-5-yl)-2-fluoro-N-(2-(pyridin-3-yl)ethyl)benzamide], the “ARVP16 DNA Binding Assay” value at AR-VP16 [1] is “No (Agonist defined as a compound whose Emax in the ARVP16 DNA Binding Assay (Agonist mode) is >20x DMSO control)”. On AR-VP16 [2], this compound displayed an IC50 above 1000 nM.

With `N#Cc1ncc(N2C(=O)C3(CCC3)N(c3ccc(OC4CCN(C(N)=O)CC4)cc3)C2=S)cc1C(F)(F)F` [Compound 222, 4-(4-(7-(6-Cyano-5-(trifluoromethyl)pyridin-3-yl)-8-oxo-6-thioxo-5,7-diazaspiro[3.4]octan-5-yl)phenoxy)piperidine-1-carboxamide], at AR-VP16 [1], the “ARVP16 DNA Binding Assay” value was “Yes (Agonist defined as a compound whose Emax in the ARVP16 DNA Binding Assay (Agonist mode) is >20x DMSO control)”. In addition, the 50% inhibitory concentration (IC50) on AR-VP16 [2] is below 1000 nM.

Consider `N#Cc1ncc(N2C(=O)C3(CCC3)N(c3ccc(OCCCCSCCCC(F)(F)C(F)(F)F)c(F)c3)C2=S)cc1C(F)(F)F` [Compound 151, 5-(5-(3-Fluoro-4-(4-((4,4,5,5,5-pentafluoropentyl)thio)butoxy)phenyl)-8-oxo-6-thioxo-5,7-diazaspiro[3.4]octan-7-yl)-3-(trifluoromethyl)picolinonitrile], for which the “ARVP16 DNA Binding Assay” value at AR-VP16 [1] is “No (Agonist defined as a compound whose Emax in the ARVP16 DNA Binding Assay (Agonist mode) is >20x DMSO control)”. Further, on AR-VP16 [2], the IC50 was above 1000 nM.

For the compound `N#Cc1ncc(N2C(=O)C3(CCC3)N(c3ccc4cnccc4c3)C2=S)cc1C(F)(F)F` [Compound 51, 5-(5-(Isoquinolin-6-yl)-8-oxo-6-thioxo-5,7-diazaspiro[3.4]octan-7-yl)-3-(trifluoromethyl)picolinonitrile], on AR-VP16 [1], the “ARVP16 DNA Binding Assay” value is recorded as “No (Agonist defined as a compound whose Emax in the ARVP16 DNA Binding Assay (Agonist mode) is >20x DMSO control)”. For the same compound, the IC50 at AR-VP16 [2] was below 1000 nM.

On to `Cc1ccc(-c2ccc(N3C(=S)N(c4cnc(C#N)c(C)c4)C(=O)C34CCC4)cc2)cn1` [Compound 96, 3-Methyl-5-(5-(4-(6-methylpyridin-3-yl)phenyl)-8-oxo-6-thioxo-5,7-diazaspiro[3.4]octan-7-yl)picolinonitrile], for which the “ARVP16 DNA Binding Assay” value on AR-VP16 [1] is “No (Agonist defined as a compound whose Emax in the ARVP16 DNA Binding Assay (Agonist mode) is >20x DMSO control)”. The compound also showed an IC50 at AR-VP16 [2] below 1000 nM.

Usually IC50 stands for the concentration at which inhibition is half-maximal.
